In publication PMC2667214, “End-Tagging of Ultra-Short Antimicrobial Peptides by W/F Stretches to Facilitate Bacterial Killing” (PLoS ONE, 2009):
Residues, ends and D or L forms follow the SMILES beside them. No end group written: not given here.

Assays:
human leukocyte elastase = biological target: T1, human leukocyte elastase (Homo sapiens, UniProt P08246); experiment: Protease sensitivity assay; type: in vitro ADME; settings: peptide 1 µg, neutrophil elastase 0.4 µg, 30 µl, 3 hours 37°C, SDS-PAGE 16.5% Tris-Tricine, Coomassie
T1 construct: purchased Calbiochem (La Jolla, USA)
T1 sequence (P08246 30-267): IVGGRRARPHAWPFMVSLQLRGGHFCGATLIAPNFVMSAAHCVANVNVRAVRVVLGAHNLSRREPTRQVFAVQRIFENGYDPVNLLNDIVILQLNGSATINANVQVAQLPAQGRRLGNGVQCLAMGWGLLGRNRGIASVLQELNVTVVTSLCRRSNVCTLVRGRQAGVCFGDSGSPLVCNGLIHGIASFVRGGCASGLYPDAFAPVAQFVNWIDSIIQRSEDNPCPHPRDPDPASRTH
Protocol: (§1) Peptides (1 µg) were incubated at 37°C with S. aureus aureolysin (0.1 µg, 25000 units/mg), S. aureus V8 proteinase (0.1 µg, 2000 mU), both from BioCol GmbH (Potsdam, Germany), or neutrophil elastase (0.4 µg, 29 units/mg; Calbiochem (La Jolla, USA)) in a total volume of 30 µl for 3 hours. The materials were analyzed on 16.5% precast sodium dodecyl sulfate polyacrylamide (SDS-PAGE) Tris-Tricine gels (BioRad, Hercules, USA) and analyzed after staining with Coomassie Blue R-250 (Merck, Darmstadt, Germany).
(§2) Figure 5 (A) Protease sensitivity of peptides. KNK10 and KNK10-WWWWW were incubated with (+) or without (−) the S. aureus enzymes aureolysin (Aur), V8 proteinase (V8), or human leukocyte elastase (HLE), and analyzed by SDS-PAGE (16.5% Tris-Tricine gels). (B) Activities of peptides in an ex vivo skin infection model. Pig skin was inoculated with E. coli ATCC 25922 (upper panel) or S. aureus ATCC 29213 (lower panel). Peptides at 1 mM were added after an incubation time of 4 h. Bacteria were collected after 2 h and cfu determined (mean values are presented, n = 6). Note the logarithmic scale on the y-axis. (In Figure 5B, the difference between tagged and non-tagged peptide is statistically significant in all cases (P<0.002, one way ANOVA).)

S. aureus V8 proteinase = biological target: T2, S. aureus V8 proteinase (Staphylococcus aureus, UniProt P0C1U8); type: in vitro ADME; settings: peptide 1 µg, V8 proteinase 0.1 µg, 30 µl, 3 hours 37°C, SDS-PAGE 16.5% Tris-Tricine, Coomassie
T2 construct: purchased BioCol GmbH (Potsdam, Germany)
Protocol: as §1, §2

S. aureus aureolysin = biological target: T3, S. aureus aureolysin (Staphylococcus aureus, UniProt P81177); type: in vitro ADME; settings: peptide 1 µg, aureolysin 0.1 µg, 30 µl, 3 hours 37°C, SDS-PAGE 16.5% Tris-Tricine, Coomassie
T3 construct: purchased BioCol GmbH (Potsdam, Germany)
Protocol: as §1, §2

[1] = system: Escherichia coli ATCC 25922; type: cell-based; settings: ATCC 25922, 100
Protocol: (§3) Essentially as described earlier, [31] bacteria were grown to mid-logarithmic phase in 10 ml of full-strength (3% w/v) trypticase soy broth (TSB) (Becton-Dickinson, Cockeysville, USA). The microorganisms were then washed once with 10 mM Tris, pH 7.4. Subsequently, 4×10^6 bacterial colony forming units were added to 15 ml of the underlay agarose gel, consisting of 0.03% (w/v) TSB, 1% (w/v) low electroendosmosis type (EEO) agarose (Sigma-Aldrich, St. Louis, USA) and 0.02% (v/v) Tween 20 (Sigma-Aldrich, St. Louis, USA). The underlay was poured into a Ø 144 mm petri dish. After agarose solidification, 4 mm-diameter wells were punched and 6 µl of peptide with required concentration added to each well. Plates were incubated at 37°C for 3 hours to allow diffusion of the peptides. The underlay gel was then covered with 15 ml of molten overlay (6% TSB and 1% Low-EEO agarose in distilled H2O). […]
(§4) Figure 1 Antibacterial and hemolytic activity of peptides. (A) Antibacterial activity of PEPscreen peptides as assessed by radial diffusion assay (RDA) in the presence and absence of 0.15 M NaCl against E. coli ATCC 25922 and S. aureus ATCC 29213, as well as hemolysis. […] The absorbance of hemoglobin release was measured at 540 nm and is expressed as % of Triton X-100 induced hemolysis. […]

[2] = system: Staphylococcus aureus ATCC 29213; type: cell-based; settings: ATCC 29213, 100
Protocol: as §3, §4

T3 sequence (P81177 209-509): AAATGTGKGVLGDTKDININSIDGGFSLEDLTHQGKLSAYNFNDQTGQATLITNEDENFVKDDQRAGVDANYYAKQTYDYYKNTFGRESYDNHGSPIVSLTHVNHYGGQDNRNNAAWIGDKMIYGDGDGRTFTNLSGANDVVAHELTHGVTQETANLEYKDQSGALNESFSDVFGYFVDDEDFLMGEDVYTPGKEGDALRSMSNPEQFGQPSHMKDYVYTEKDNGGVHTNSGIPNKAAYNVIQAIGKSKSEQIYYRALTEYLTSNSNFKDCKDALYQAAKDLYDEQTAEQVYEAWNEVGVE
T2 sequence (P0C1U8 69-336): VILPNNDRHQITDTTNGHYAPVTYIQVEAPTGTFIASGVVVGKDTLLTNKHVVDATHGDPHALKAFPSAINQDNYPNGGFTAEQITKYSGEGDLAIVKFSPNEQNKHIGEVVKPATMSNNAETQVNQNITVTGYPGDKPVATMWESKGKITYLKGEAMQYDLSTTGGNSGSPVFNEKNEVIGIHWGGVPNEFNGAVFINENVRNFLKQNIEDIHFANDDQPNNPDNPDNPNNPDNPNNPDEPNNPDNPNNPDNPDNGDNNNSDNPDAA

| Compound | stability against proteolytic degradation (in words) (human leukocyte elastase) | stability against proteolytic degradation (in words) (S. aureus V8 proteinase) | stability against proteolytic degradation (in words) (S. aureus aureolysin) | clearance zone in RDA [1] | clearance zone in RDA [2] |
| --- | --- | --- | --- | --- | --- |
| CC[C@H](C)[C@H](NC(=O)[C@H](CCCCN)NC(=O)[C@H](CCC(=O)O)NC(=O)[C@H](CCCCN)NC(=O)[C@H](CO)NC(=O)[C@H](CCCCN)NC(=O)[C@H](CCCNC(=N)N)NC(=O)[C@H](Cc1ccccc1)NC(=O)[C@H](Cc1ccccc1)NC(=O)[C@H](CC(=O)O)NC(=O)CNC(=O)[C@H](CC(C)C)NC(=O)[C@@H](N)CC(C)C)C(=O)NCC(=O)N[C@@H](CCCCN)C(=O)N[C@@H](CCC(=O)O)C(=O)N[C@@H](Cc1ccccc1)C(=O)N[C@@H](CCCCN)C(=O)N[C@@H](CCCNC(=N)N)C(=O)N[C@H](C(=O)N[C@H](C(=O)N[C@@H](CCC(N)=O)C(=O)N[C@@H](CCCNC(=N)N)C(=O)N[C@H](C(=O)N[C@@H](CCCCN)C(=O)N[C@@H](CC(=O)O)C(=O)N[C@@H](Cc1ccccc1)C(=O)N[C@@H](CC(C)C)C(=O)N[C@@H](CCCNC(=N)N)C(=O)N[C@@H](CC(N)=O)C(=O)N[C@@H](CC(C)C)C(=O)N[C@H](C(=O)N1CCC[C@H]1C(=O)N[C@@H](CCCNC(=N)N)C(=O)N[C@H](C(=O)N[C@@H](CCC(=O)O)C(=O)N[C@@H](CO)C(=O)O)[C@@H](C)O)C(C)C)[C@@H](C)CC)C(C)C)[C@@H](C)CC [LL-37] | substantial degradation | substantial degradation | substantial degradation | – | – |
| N[C@@H](Cc1c[nH]c2ccccc12)C(=O)N[C@@H](Cc1c[nH]c2ccccc12)C(=O)N[C@@H](Cc1c[nH]c2ccccc12)C(=O)O [WWW] (H-Trp-Trp-Trp-OH) | – | – | – | 0 mm | 0 mm |
| KNKGKKNGKH [KNK10] | – | good stability | good stability | – | – |
| KNKGKKNGKHWWWWW [KNK10-WWWWW] | – | good stability | good stability | – | – |
